Reference: patent publication EP0403301B1, “Aerosols of pyrido[1,2-a]pyrimidine compounds” (TOKYO TANABE COMPANY LIMITED, priority 1989, dated 1990)
Values after ≈ are worked out from the molar mass of the structure shown.

Legend:
Type in all cases: physicochemical
[1] = dispersibility and cohesiveness of fine particles in propellant with dispersant (naked eye); details: AS-148 in place of AS-35
Protocol: First of all, a series of experiments were carried out to evaluate the effectiveness of conventional dispersants. More specifically, various ester forms of non-ionic surfactants which are non-irritating to the site of application were tested by using an aerosol composition consisting of finely powdered AS-35 and a propellant comprising a 4:6 mixture of Freon 11 and Freon 12. Thus, the solubility of the dispersants in the propellant, the dispersibility of fine particles, the cohesiveness of fine particles, and variation in the amount delivered were examined.
Among the aforesaid test items, the solubility of a dispersant in the propellant was evaluated by placing 90 mg of the dispersant in a transparent container made of polyethylene terephthalate (hereinafter referred to as PET), attaching a valve thereto, injecting the propellant (i.e., a 4:6 mixture of Freon 11 and Freon 12) thereinto until the contents amounted to 12.0 g, shaking the container vigorously, and then observing the contents with the naked eye. […]

solubility in water = assay: solubility in water
Protocol: (§1) Inhalations for use as antiallergic agents include aqueous solution type aerosol inhalations, solution type aerosol inhalations and suspension type aerosol inhalations. The solubilities of pyrido[1,2-a]pyrimidine compounds in water are very low. For example, the solubility of 9-[(4-acetyl-3-hydroxy-2-n-propylphenoxy)methyl]-3-(1H-tetrazol-5-yl)-4H-pyrido[1,2-a]pyrimidin-4-one (hereinafter referred to as AS-35) in water is as low as 0.4 µg/ml. Accordingly, it would be impractical to prepare an aqueous solution type aerosol inhalation of AS-35, because this would require massive containers and devices. Moreover, in order to prepare a solution type aerosol inhalation of a pyrido[1,2-a]pyrimidine compound, it must be dissolved in a propellant or a mixture of a propellant and a commonly used solubilizing agent. […] Moreover, AS-35 is also insoluble in mixtures of such propellants and commonly used solubilizing agents. Thus, it is impossible to prepare a solution type aerosol inhalation of AS-35.

[2] = solubility in propellants and in propellant/solubilizing agent mixtures; details: Freon 11, 12, 13, 21, 22, 113, 114, 115, 123, 124, 132b, 133a, 134a, 141b, 142b, 152a, 225ca, 225cb, C318
Protocol: as §1

| Compound | results of Table 1 (dispersibility, cohesiveness with conventional dispersants) [1] | solubility (solubility in water) | solubility in commonly used propellants [2] |
| --- | --- | --- | --- |
| CCCc1c(OCc2cccn3c(=O)c(CC(=O)O)cnc23)ccc(C(C)=O)c1O [AS-148, [9-(4-acetyl-3-hydroxy-2-n-propylphenoxymethyl)-4-oxo-pyrido[1,2-a]pyrimidin-3-yl]-acetic acid] | exactly the same results as AS-35 |  |  |
| CCCc1c(OCc2cccn3c(=O)c(-c4nnn[nH]4)cnc23)ccc(C(C)=O)c1O [AS-35, 9-[(4-acetyl-3-hydroxy-2-n-propylphenoxy)methyl]-3-(1H-tetrazol-5-yl)-4H-pyrido[1,2-a]pyrimidin-4-one] |  | 0.4 µg/mL (≈ 0.951 µM) | entirely insoluble |
